The source of these data is patent publication US10604696B2, “Process for acidizing” (Cleansorb Limited, priority 2014, dated 2020).

Structures are written as SMILES.

Data set [1] in a line: Calcium salt precipitation following acidising of calcium carbonate in fresh water. It is filed as physicochemical. From the text: The dissolving capacities of delta glucono lactone and […] (a formic acid precursor commercially available from Cleansorb Limited of Guildford, UK) and their capacity for precipitation of calcium salts is shown in Table 1.
Data set [2] can be described thus: Calcium salt precipitation at 5° C. from spent acidizing solutions. Type of data set: physicochemical. Particulars: 2.7 g CaCO3 in 100 ml, 65 hours at approximately 25° C., then 20 hours at 5° C. The protocol:
100 ml solutions were prepared in deionised water in 100 ml Duran bottles: 2.7 g of laboratory grade CaCO3 was added to each solution. Acidizing was allowed to proceed at room temperature (approximately 25° C.) for 65 hours. To simulate the effect of low temperature spent acidizing solutions were placed in a refrigerator at 5° C. and observed at 20 hours for the presence of any precipitate.

Regarding `O=C1O[C@H](CO)[C@@H](O)[C@H](O)[C@H]1O` [Glucono delta lactone, D-(+)-Gluconic acid δ-lactone], the “Calcium salt precipitated following acidising of calcium carbonate in fresh water” value was “No” in data set [1] (acid precursor used at 1% w/v); “No” in data set [1] (acid precursor used at 2% w/v); “Yes” in data set [1] (acid precursor used at 3% w/v); “Yes” in data set [1] (acid precursor used at 5% w/v); “Yes” in data set [1] (acid precursor used at 10% w/v). The “Calcium salt precipitated at 5° C. following acidising” value in data set [2] (10% w/v glucono delta lactone plus sodium acetate 5% w/v) is on record as “No”; in data set [2] (10% w/v glucono delta lactone plus sodium lactate 60% solution 10.8% w/v) it was “No”; in data set [2] (10% w/v glucono delta lactone, no additional component), “Yes”; in data set [2] (22% w/v glucono delta lactone plus sodium acetate 5% w/v), “No”; in data set [2] (22% w/v glucono delta lactone plus sodium lactate 60% solution 10.8% w/v), “No”; in data set [2] (22% w/v glucono delta lactone, no additional component), “Yes”.
